Assay results published in patent US20200017913A1, “METHODS AND SYSTEMS FOR PREDICTING TREATMENT RESPONSES IN SUBJECTS” (PRESIDENT AND FELLOWS OF HARVARD COLLEGE, priority 2017, published 2020).

Tested on: pancolitis in Patient #2
Test: Clinical treatment course of Patient #2 with pancolitis
Assay type: in vivo, human
Conditions: Patient #2, pancolitis flare, conventional therapies
Procedure: Patient #2 was evaluated by a general intestinal doctor […] to receive treatment for bloody stool. […]
This included a glucocorticoid stress dose and a vancomycin treatment.
At that point, the tissue obtained in the most recent colonoscopic biospy was gene expression (RNA) profiled according to an exemplary methodology of the present disclosure. […] In this case, the drug was indigo, an over the counter supplement, also known as Qing Dai.

Row | SMILES | clinical response to treatment
1 | Sc1ncnc2nc[nH]c12 [6-mercaptopurine] | no improvement after 3 months
2 | CO[C@H]1/C=C/O[C@@]2(C)Oc3c(C)c(O)c4c(O)c(c5c(nc6cc(C)ccn65)c4c3C2=O)NC(=O)/C(C)=C\C=C\[C@H](C)[C@H](O)[C@@H](C)[C@@H](O)[C@@H](C)[C@H](OC(C)=O)[C@@H]1C [Rifaximin] | transient improvement for a couple weeks
3 | C=CC[C@@H]1/C=C(\C)C[C@H](C)C[C@H](OC)[C@H]2O[C@@](O)(C(=O)C(=O)N3CCCC[C@H]3C(=O)O[C@H](/C(C)=C/[C@@H]3CC[C@@H](O)[C@H](OC)C3)[C@H](C)[C@@H](O)CC1=O)[C@H](C)C[C@@H]2OC [tacrolimus] | mild improvement but no remission
4 | CN[C@H](CC(C)C)C(=O)N[C@H]1C(=O)N[C@@H](CC(N)=O)C(=O)N[C@H]2C(=O)N[C@H]3C(=O)N[C@H](C(=O)N[C@H](C(=O)O)c4cc(O)cc(O)c4-c4cc3ccc4O)[C@H](O)c3ccc(c(Cl)c3)Oc3cc2cc(c3O[C@@H]2O[C@H](CO)[C@@H](O)[C@H](O)[C@H]2O[C@H]2C[C@](C)(N)[C@H](O)[C@H](C)O2)Oc2ccc(cc2Cl)[C@H]1O [vancomycin] | transient effect that lasted about a week
